From patent publication US12043632B2, “6-heteroaryloxy benzimidazoles and azabenzimidazoles as JAK2 inhibitors” (Ajax Therapeutics, Inc., priority 2020, dated 2024) come the findings set out here.

Each structure is given as a SMILES string.

The target of this experiment is T1, JAK2 (JH1domain-catalytic, Y1007F,Y1008F) kinase (Homo sapiens, UniProt O60674, Y1007F/Y1008F).
T1 construct: JAK2 (JH1domain-catalytic, Y1007F,Y1008F) kinase was expressed as N-terminal fusion; made in house; host or cells: transiently transfected HEK293 cells
T1 sequence (O60674 849-1124 Y1007F/Y1008F limits assumed): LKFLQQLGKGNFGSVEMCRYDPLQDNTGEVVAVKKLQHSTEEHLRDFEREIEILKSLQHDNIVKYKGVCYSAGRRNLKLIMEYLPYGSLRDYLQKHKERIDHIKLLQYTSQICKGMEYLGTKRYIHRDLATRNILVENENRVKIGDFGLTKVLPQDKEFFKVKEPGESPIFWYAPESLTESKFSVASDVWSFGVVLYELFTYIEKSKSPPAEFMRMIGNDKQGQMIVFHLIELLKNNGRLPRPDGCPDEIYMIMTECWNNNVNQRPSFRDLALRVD
The experiment in a line: JAK2 JH1 Domain Binding Assay. As to conditions: qPCR readout. (Quantitative PCR measures a nucleic acid by following its amplification.)
By Kd is commonly meant a measure of binding affinity in units of concentration. In the case of `Cn1c(Nc2cc(C3CC3)cn(CCCN3CCCC(F)(F)C3)c2=O)nc2ncc(Oc3cnn4ccncc34)c(Cl)c21` [Example I-129, 3-((7-chloro-1-methyl-6-(pyrazolo[1,5-a]pyrazin-3-yloxy)-1H-imidazo[4,5-b]pyridin-2-yl)amino)-5-cyclopropyl-1-(3-(3,3-difluoropiperidin-1-yl)propyl)pyridin-2(1H)-one], the Kd lay in the range of 10 to 50 nM.

Compound `COc1c(Oc2cnc3cnc(C4CC4)n3c2)cnc2nc(Nc3cc(C(C)(C)C)n([C@H]4C[C@H](O)C4)n3)n(C)c12` [Example I-130, (1r,3r)-3-(5-(tert-butyl)-3-((6-((6-cyclopropylimidazo[1,5-a]pyrimidin-3-yl)oxy)-7-methoxy-1-methyl-1H-imidazo[4,5-b]pyridin-2-yl)amino)-1H-pyrazol-1-yl)cyclobutan-1-ol] gave a Kd of 10 to 50 nM.

`Cn1c(Nc2cc(C3CC3)cn(CC#N)c2=O)nc2ncc(Oc3cnn4ccncc34)c(Cl)c21` [Example I-132, 2-(3-((7-chloro-1-methyl-6-(pyrazolo[1,5-a]pyrazin-3-yloxy)-1H-imidazo[4,5-b]pyridin-2-yl)amino)-5-cyclopropyl-2-oxopyridin-1(2H)-yl)acetonitrile] had a Kd of under 10 nM.

For `CNc1nccn2ncc(Oc3cnc4nc(Nc5cc(C6CC6)cn(C)c5=O)n(C)c4c3Cl)c12` [Example I-134, 3-((7-chloro-1-methyl-6-((4-(methylamino)pyrazolo[1,5-a]pyrazin-3-yl)oxy)-1H-imidazo[4,5-b]pyridin-2-yl)amino)-5-cyclopropyl-1-methylpyridin-2(1H)-one], the Kd is under 10 nM.

Consider `COCCOc1nccn2ncc(Oc3cnc4nc(Nc5cc(C6CC6)cn(C)c5=O)n(C)c4c3Cl)c12` [Example I-135, 3-((7-chloro-6-((4-(2-methoxyethoxy)pyrazolo[1,5-a]pyrazin-3-yl)oxy)-1-methyl-1H-imidazo[4,5-b]pyridin-2-yl)amino)-5-cyclopropyl-1-methylpyridin-2(1H)-one], for which the Kd was under 10 nM.

In turn, `Cn1cc(C2CC2)cc(Nc2nc3ncc(Oc4cnn5ccnc(OCCN6CCOCC6)c45)c(Cl)c3n2C)c1=O` [Example I-136, 3-((7-chloro-1-methyl-6-((4-(2-morpholinoethoxy)pyrazolo[1,5-a]pyrazin-3-yl)oxy)-1H-imidazo[4,5-b]pyridin-2-yl)amino)-5-cyclopropyl-1-methylpyridin-2(1H)-one] registered a Kd of 10 to 50 nM.

On to `Cn1c(Nc2cc(C(C)(C)C)n([C@H]3CCOC3)n2)nc2ncc(Oc3cnn4ccncc34)c(C#N)c21` [Example I-137, (S)-2-((5-(tert-butyl)-1-(tetrahydrofuran-3-yl)-1H-pyrazol-3-yl)amino)-1-methyl-6-(pyrazolo[1,5-a]pyrazin-3-yloxy)-1H-imidazo[4,5-b]pyridine-7-carbonitrile], for which the Kd lay within 10 to 50 nM.

For the compound `Cn1c(Nc2cc(C(F)(F)F)cn(CCCN3CCCC(F)(F)C3)c2=O)nc2ncc(Oc3cnn4ccncc34)c(Cl)c21` [Example I-138, 3-((7-chloro-1-methyl-6-(pyrazolo[1,5-a]pyrazin-3-yloxy)-1H-imidazo[4,5-b]pyridin-2-yl)amino)-1-(3-(3,3-difluoropiperidin-1-yl)propyl)-5-(trifluoromethyl)pyridin-2(1H)-one], the Kd was in the range of 10 to 50 nM.

As to `Cn1c(Nc2cc(C(F)(F)F)cn(CCO)c2=O)nc2ncc(Oc3cnn4ccnc(N5CCOCC5)c34)c(Cl)c21` [Example I-140, 3-((7-chloro-1-methyl-6-((4-morpholinopyrazolo[1,5-a]pyrazin-3-yl)oxy)-1H-imidazo[4,5-b]pyridin-2-yl)amino)-1-(2-hydroxyethyl)-5-(trifluoromethyl)pyridin-2(1H)-one], the Kd lay in the range of 10 to 50 nM.

For `Cn1c(Nc2cc(C3CC3)cn(CCO)c2=O)nc2ncc(Oc3cnn4cccc(F)c34)c(Cl)c21` [Example I-141, 3-((7-chloro-6-((4-fluoropyrazolo[1,5-a]pyridin-3-yl)oxy)-1-methyl-1H-imidazo[4,5-b]pyridin-2-yl)amino)-5-cyclopropyl-1-(2-hydroxyethyl)pyridin-2(1H)-one], the Kd is under 10 nM.

Consider `Cn1c(Nc2cc(C3CC3)nn([C@@H]3CCOC3)c2=O)nc2ncc(Oc3cnn4ccccc34)c(Cl)c21` [Example I-142, (R)-4-((7-chloro-1-methyl-6-(pyrazolo[1,5-a]pyridin-3-yloxy)-1H-imidazo[4,5-b]pyridin-2-yl)amino)-6-cyclopropyl-2-(tetrahydrofuran-3-yl)pyridazin-3(2H)-one], for which the Kd was under 10 nM.

Take `Cn1c(Nc2cc(C3CC3)nn([C@H]3CCOC3)c2=O)nc2ncc(Oc3cnn4ccccc34)c(Cl)c21` [Example I-143, (S)-4-((7-chloro-1-methyl-6-(pyrazolo[1,5-a]pyridin-3-yloxy)-1H-imidazo[4,5-b]pyridin-2-yl)amino)-6-cyclopropyl-2-(tetrahydrofuran-3-yl)pyridazin-3(2H)-one]: the equilibrium dissociation constant (Kd) was under 10 nM.

Turning to `Cn1cc(C(F)(F)C(F)(F)F)cc(Nc2nc3ncc(Oc4cnn5ccncc45)c(Cl)c3n2C)c1=O` [Example I-144, 3-((7-chloro-1-methyl-6-(pyrazolo[1,5-a]pyrazin-3-yloxy)-1H-imidazo[4,5-b]pyridin-2-yl)amino)-1-methyl-5-(perfluoroethyl)pyridin-2(1H)-one], the Kd is under 10 nM.

Compound `Cn1c(Nc2cc(C(=O)NCCN3CCOCC3)cc(C(F)(F)F)c2)nc2ncc(Oc3cnn4ccccc34)c(Cl)c21` [Example I-145, 3-((7-chloro-1-methyl-6-(pyrazolo[1,5-a]pyridin-3-yloxy)-1H-imidazo[4,5-b]pyridin-2-yl)amino)-N-(2-morpholinoethyl)-5-(trifluoromethyl)benzamide] registered a Kd of 10 to 50 nM.

Compound `CCN1CCN(Cc2ccc(Nc3nc4ncc(Oc5cnn6ccncc56)c(Cl)c4n3C)cc2C(F)(F)F)CC1` [Example I-146, 7-chloro-N-(4-((4-ethylpiperazin-1-yl)methyl)-3-(trifluoromethyl)phenyl)-1-methyl-6-(pyrazolo[1,5-a]pyrazin-3-yloxy)-1H-imidazo[4,5-b]pyridin-2-amine] had a Kd of under 10 nM.

`Cn1c(Nc2ccc(CN3CCOCC3)c(C(F)(F)F)c2)nc2ncc(Oc3cnn4ccncc34)c(Cl)c21` [Example I-149, 7-chloro-1-methyl-N-(4-(morpholinomethyl)-3-(trifluoromethyl)phenyl)-6-(pyrazolo[1,5-a]pyrazin-3-yloxy)-1H-imidazo[4,5-b]pyridin-2-amine] showed a Kd of under 10 nM.

`Cn1c(Nc2cc(C3CC3)cn([C@H]3C[C@@H](O)C3)c2=O)nc2ncc(Oc3cnn4cc(F)ccc34)c(Cl)c21` [Example I-151, cis-3-((7-chloro-6-((6-fluoropyrazolo[1,5-a]pyridin-3-yl)oxy)-1-methyl-1H-imidazo[4,5-b]pyridin-2-yl)amino)-5-cyclopropyl-1-(3-hydroxycyclobutyl)pyridin-2(1H)-one] gave a Kd of under 10 nM.

Consider `Cn1c(Nc2cc(C3CC3)cn([C@H]3C[C@H](O)C3)c2=O)nc2ncc(Oc3cnn4cc(F)ccc34)c(Cl)c21` [Example I-152, trans-3-((7-chloro-6-((6-fluoropyrazolo[1,5-a]pyridin-3-yl)oxy)-1-methyl-1H-imidazo[4,5-b]pyridin-2-yl)amino)-5-cyclopropyl-1-(3-hydroxycyclobutyl)pyridin-2(1H)-one], for which the Kd is under 10 nM.

Turning to `COCCOc1ccc2c(Oc3cnc4nc(Nc5cc(C6CC6)nn(CCO)c5=O)n(C)c4c3Cl)cnn2c1` [Example I-153, 4-((7-chloro-6-((6-(2-methoxyethoxy)pyrazolo[1,5-a]pyridin-3-yl)oxy)-1-methyl-1H-imidazo[4,5-b]pyridin-2-yl)amino)-6-cyclopropyl-2-(2-hydroxyethyl)pyridazin-3(2H)-one], the Kd was under 10 nM.

Turning to `CN1C(=O)c2cc(Nc3nc4ncc(Oc5cnn6ccncc56)c(Cl)c4n3C)cc(C(F)(F)F)c2C1(C)C` [Example I-154, 6-((7-chloro-1-methyl-6-(pyrazolo[1,5-a]pyrazin-3-yloxy)-1H-imidazo[4,5-b]pyridin-2-yl)amino)-2,3,3-trimethyl-4-(trifluoromethyl)isoindolin-1-one], the Kd is under 10 nM.

The compound `COCCOc1ccc2c(Oc3cnc4nc(Nc5cc(C6CC6)cn(CCO)c5=O)n(C)c4c3Cl)cnn2c1` [Example I-155, 3-((7-chloro-6-((6-(2-methoxyethoxy)pyrazolo[1,5-a]pyridin-3-yl)oxy)-1-methyl-1H-imidazo[4,5-b]pyridin-2-yl)amino)-5-cyclopropyl-1-(2-hydroxyethyl)pyridin-2(1H)-one] showed a Kd of under 10 nM.

In turn, `CC(=O)N1CC2(CC(n3nc(Nc4nc5ncc(Oc6cnn7ccncc67)c(Cl)c5n4C)cc3C(F)(F)F)C2)C1` [Example I-156, 1-(6-(3-((7-chloro-1-methyl-6-(pyrazolo[1,5-a]pyrazin-3-yloxy)-1H-imidazo[4,5-b]pyridin-2-yl)amino)-5-(trifluoromethyl)-1H-pyrazol-1-yl)-2-azaspiro[3.3]heptan-2-yl)ethan-1-one] returned a Kd of under 10 nM.

As for `Cn1c(Nc2cc(C(F)(F)F)cn(-c3cccnc3)c2=O)nc2ncc(Oc3cnn4ccccc34)c(C#N)c21` [Example I-157, 1-methyl-2-((2-oxo-5-(trifluoromethyl)-2H-[1,3′-bipyridin]-3-yl)amino)-6-(pyrazolo[1,5-a]pyridin-3-yloxy)-1H-imidazo[4,5-b]pyridine-7-carbonitrile], the Kd is under 10 nM.

For the compound `Cn1c(Nc2cc(C(C)(C)C)n([C@H]3C[C@H](O)C3)n2)nc2ncc(Oc3cnn4ccncc34)c(C#N)c21` [Example I-158, trans-2-((5-(tert-butyl)-1-(3-hydroxycyclobutyl)-1H-pyrazol-3-yl)amino)-1-methyl-6-(pyrazolo[1,5-a]pyrazin-3-yloxy)-1H-imidazo[4,5-b]pyridine-7-carbonitrile], the Kd was under 10 nM.

`Cn1c(Nc2cc(C(F)(F)F)cn(CCCN3CCOCC3)c2=O)nc2ncc(Oc3cnn4ccccc34)c(C#N)c21` [Example I-159, 1-methyl-2-((1-(3-morpholinopropyl)-2-oxo-5-(trifluoromethyl)-1,2-dihydropyridin-3-yl)amino)-6-(pyrazolo[1,5-a]pyridin-3-yloxy)-1H-imidazo[4,5-b]pyridine-7-carbonitrile] gave a Kd of under 10 nM.
